The source of these data is patent US11033547B2, “Carboxamide-pyrimidine derivatives as SHP2 antagonists” (Merck Patent GmbH, priority 2019, dated 2021).

Test [1] deals with Full length SHP2 protein (Recombinant Human SHP-2) (Homo sapiens, UniProt Q06124). Nature of the test: SHP2 biochemical assay (DiFMUP substrate, activating peptide IRSI_2pY). As to conditions: DiFMUP substrate, activating peptide IRSI_2pY, 60 min at RT; read-out: SHP-2 Biochemical assay IC50. As to the method:
The inhibition of SHP2 by compounds of the invention was monitored using the surrogate substrate DiFMUP after protein activation by a peptide bearing two appropriately spaced phosphotyrosine. […] The generation of the DiFMU product by activated SHP2 was monitored through Fluorescence measurement with a PerkinElmer Envision reader.
The inhibitor dose response curves were analyzed with Genedata Screener.

In test [2] the test system is pERK level in MDA-MB-468 cells. Briefly: p-Erk cellular assay in MDA-MB-468 (Mesoscale). The test is classed as cell-based. The settings on record: 2 h incubation, read-out: pERK1/2 in MDA-MB-468 IC50. As to the method: (§1) p-Erk Cellular Assay in MDA-MB-468 and KYSE520:
(§2) The effect of SHP2 inhibitors on pERK level was assessed using phospho-specific antibody using Mesoscale quantification platform. For measuring change in pERK levels using mesoscale, 30,000 cells of MDA MB468 and KYSE520 cells were plated in 96-well tissue culture treated plate in 175 ul volume of media. After an overnight incubation at 37° C., various SHP2 inhibitors were added in different concentration to each well maintaining duplicate wells across plates and incubated with compounds for 2 h at 37° C. followed by a wash with ice cold PBS buffer. The cells were then lysed in lysis buffer and processed and analyzed for p-ERK/ERK as per manufacturer's instructions (Mesoscale discovery, cat No. K15107D-3).

The test system of test [3] is pERK level in KYSE520 cells. Nature of the test: p-Erk cellular assay in KYSE520 (Mesoscale). The test is classed as cell-based. The settings on record: Homo sapiens, KYSE-520, 2 h, 2 h incubation, read-out: pERK1/2 in KYSE520 IC50. As to the method: as §1, §2

Like-named read-outs stand apart in the source and are kept apart here.

Full length SHP2 protein (Recombinant Human SHP-2), sequence (Q06124 2-593 limits assumed): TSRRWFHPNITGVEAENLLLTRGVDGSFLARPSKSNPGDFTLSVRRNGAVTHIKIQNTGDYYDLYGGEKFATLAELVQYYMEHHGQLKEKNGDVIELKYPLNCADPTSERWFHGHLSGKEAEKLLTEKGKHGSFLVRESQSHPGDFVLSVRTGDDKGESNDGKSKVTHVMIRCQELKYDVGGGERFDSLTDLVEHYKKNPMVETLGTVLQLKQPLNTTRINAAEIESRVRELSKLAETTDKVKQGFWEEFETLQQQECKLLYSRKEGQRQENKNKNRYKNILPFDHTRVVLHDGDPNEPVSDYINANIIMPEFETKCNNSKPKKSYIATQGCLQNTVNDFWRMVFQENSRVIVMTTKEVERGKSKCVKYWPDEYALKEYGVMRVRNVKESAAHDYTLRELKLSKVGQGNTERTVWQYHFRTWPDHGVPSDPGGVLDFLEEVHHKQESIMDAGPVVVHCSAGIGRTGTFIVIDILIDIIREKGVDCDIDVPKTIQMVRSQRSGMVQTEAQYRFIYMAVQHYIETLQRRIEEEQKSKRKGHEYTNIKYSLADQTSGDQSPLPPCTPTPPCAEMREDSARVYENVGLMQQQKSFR

`C[C@@]1(N)CCCN(c2nc(N)c(-c3cccc(Cl)c3Cl)c(C(N)=O)n2)CC1` (atropisomer, axis not shown; (P)) [Compound 109, (5P)-6-amino-2-[(4R)-4-amino-4-methylazepan-1-yl]-5-(2,3-dichlorophenyl)-pyrimidine-4-carboxamide]: the IC50 in test [1] amounted to 71 nM; in test [2] (Homo sapiens, MDA-MB-468, 2 h) it was 420 nM; in test [3], 468 nM.
Take `NC[C@]12CCCC[C@H]1CN(c1nc(N)c(-c3cccc(Cl)c3Cl)c(C(N)=O)n1)C2` (single isomer, unassigned) [Compound 101]: the IC50 came to 75 nM in test [1]; 445 nM in test [2] (Homo sapiens, MDA-MB-468, 2 h); 390 nM in test [3].
Taken in the same sequence, the figures for `Cc1nc(N2CCC3(CCC[C@H]3N)CC2)nc(C(N)=O)c1-c1cccc(Cl)c1Cl` (single isomer, unassigned) [Compound 114] were 45 nM, 316 nM and 284 nM.
For `NC(=O)c1nc(N2CCC3(CCC[C@H]3N)CC2)nc(N)c1-c1cccc(Cl)c1Cl` [Compound 7, 6-amino-2-[(1R)-1-amino-8-azaspiro[4.5]decan-8-yl]-5-(2,3-dichlorophenyl)pyrimidine-4-carboxamide], the IC50 was 120 nM in test [1]; 606 nM in test [2] (Homo sapiens, MDA-MB-468, 2 h); 1370 nM in test [3].
On to `NC(=O)c1nc(N2CCC3(CC2)CC(F)(F)C[C@H]3N)nc(N)c1-c1cccc(Cl)c1Cl` [Compound 8, 6-amino-2-[(1R)-1-amino-3,3-difluoro-8-azaspiro[4.5]decan-8-yl]-5-(2,3-dichlorophenyl)pyrimidine-4-carboxamide], for which the IC50 was 200 nM in test [1]; 2180 nM in test [2] (Homo sapiens, MDA-MB-468, 2 h); 1510 nM in test [3].
Taken in the same sequence, the figures for `CNC(=O)c1nc(N2CCC(C)(N)CC2)nc(N)c1-c1cccc(Cl)c1Cl` [Compound 9, 6-Amino-2-(4-amino-4-methyl-piperidin-1-yl)-5-(2,3-dichlorophenyl)-pyrimidine-4-carboxylic Acid Methylamide] were 1100 nM, 1500 nM and 6440 nM.
In the case of `NCC1CN(c2nc(N)c(-c3cccc(Cl)c3Cl)c(C(N)=O)n2)CC12CCC2` (stereo not drawn) [Compound 11, 6-amino-2-[8-(aminomethyl)-6-azaspiro[3.4]octan-6-yl]-5-(2,3-dichlorophenyl)pyrimidine-4-carboxamide], the IC50 in test [1] came out at 590 nM; in test [2] (Homo sapiens, MDA-MB-468, 2 h), 1830 nM; in test [3] it was 10200 nM.
As to `Cc1nc(N2CCC(C)(N)CC2)nc(C(N)=O)c1-c1cccc(Cl)c1Cl` [Compound 18, 2-(4-Amino-4-methyl-piperidin-1-yl)-5-(2,3-dichloro-phenyl)-6-methyl-pyrimidine-4-carboxylic Acid Amide], the IC50 in test [1] turned out to be 104 nM; in test [2], 231 nM; in test [3], 2400 nM.
As for `CC1(N)CCN(c2nc(N)c(-c3cccc(Cl)c3Cl)c(C(=O)NO)n2)CC1` [Compound 20, 6-Amino-2-(4-amino-4-methyl-piperidin-1-yl)-5-(2,3-dichlorophenyl)-pyrimidine-4-carboxylic Acid Hydroxyamide], the IC50 in test [1] stood at 150 nM; in test [2] (Homo sapiens, MDA-MB-468, 2 h), 492 nM; in test [3], 8450 nM.
Take `NCC12CCCCC1CN(c1nc(N)c(-c3cccc(Cl)c3Cl)c(C(N)=O)n1)C2` (stereo not drawn) [Compound 24, 2-[3a-(aminomethyl)-octahydro-1H-isoindol-2-yl]-6-amino-5-(2,3-dichlorophenyl)pyrimidine-4-carboxamide]: the IC50 in test [1] amounted to 270 nM; in test [2] (Homo sapiens, MDA-MB-468, 2 h) it was 2350 nM; in test [3], 7650 nM.
For `Cc1nc(NC2CCCC(N)C2)nc(C(N)=O)c1-c1cccc(Cl)c1Cl` (stereo not drawn) [Compound 28, 2-(3-Amino-cyclohexyl-amino)-5-(2,3-dichloro-phenyl)-6-methyl-pyrimidine-4-carboxylic acid amide], the IC50 in test [1] was found to be 360 nM; in test [2] (Homo sapiens, MDA-MB-468, 2 h) it was 1630 nM; in test [3], 11500 nM.
`NC(=O)c1nc(N2CCC(N)(CO)CC2)nc(N)c1-c1cccc(Cl)c1Cl` [Compound 29, 6-amino-2-[4-amino-4-(hydroxymethyl)piperidin-1-yl]-5-(2,3-dichlorophenyl)-pyrimidine-4-carboxamide]: the IC50 in test [1] was 260 nM; in test [2] (Homo sapiens, MDA-MB-468, 2 h) it was 1170 nM; in test [3], 7700 nM.
Turning to `Cc1nc(N(C)C2CCC(N)CC2)nc(C(N)=O)c1-c1cccc(Cl)c1Cl` (stereo not drawn) [Compound 32, 2-[(4-Amino-cyclohexyl)-methyl-amino]-5-(2,3-dichlorophenyl)-6-methyl-pyrimidine-4-carboxylic acid amide], the IC50 in test [1] is 200 nM; in test [2] (Homo sapiens, MDA-MB-468, 2 h), 736 nM; in test [3], 3610 nM.
Consider `CC1(CN)CCN(c2nc(N)c(-c3cccc(Cl)c3Cl)c(C(N)=O)n2)CC1` [Compound 41, 6-amino-2-[4-(aminomethyl)-4-methylpiperidin-1-yl]-5-(2,3-dichlorophenyl)pyrimidine-4-carboxamide], for which the IC50 in test [1] turned out to be 310 nM; in test [2] (Homo sapiens, MDA-MB-468, 2 h) it was 908 nM; in test [3], 2990 nM.
Taken in the same sequence, the figures for `Cc1nc(N2CCCC(C)(N)CC2)nc(C(N)=O)c1-c1cccc(Cl)c1Cl` (stereo not drawn) [Compound 45, 2-(4-Amino-4-methyl-azepan-1-yl)-5-(2,3-dichloro-phenyl)-6-methyl-pyrimidine-4-carboxylic acid amide] were 170 nM, 646 nM and 2100 nM.
Taken in the same sequence, the figures for `NC(=O)c1nc(N2CCCC(N)CC2)nc(N)c1-c1cccc(Cl)c1Cl` (stereo not drawn) [Compound 49, 6-amino-2-(4-aminoazepan-1-yl)-5-(2,3-dichlorophenyl)-pyrimidine-4-carboxamide] were 120 nM, 683 nM and 2540 nM.
As to `CCCC1(N)CCN(c2nc(N)c(-c3cccc(Cl)c3Cl)c(C(N)=O)n2)CC1` [Compound 53, 6-amino-2-(4-amino-4-propylpiperidin-1-yl)-5-(2,3-dichloro-phenyl)pyrimidine-4-carboxamide], the IC50 turned out to be 200 nM in test [1]; 652 nM in test [2] (Homo sapiens, MDA-MB-468, 2 h); 1300 nM in test [3].
On the same counts, the results for `Cc1nc(N2CCC(C)(N)CC2)nc(C(N)=O)c1-c1ccnc(Cl)c1Cl` [Compound 81, 2-(4-Amino-4-methyl-piperidin-1-yl)-5-(2,3-dichloro-pyridin-4-yl)-6-methyl-pyrimidine-4-carboxylic acid amide] are 720 nM, 1720 nM and 11300 nM.
As for `Cc1nc(N2CCC3(CC2)CO[C@@H](C)[C@H]3N)nc(C(N)=O)c1-c1cccc(Cl)c1Cl` [Compound 85, 2-[(3S,4S)-4-amino-3-methyl-2-oxa-8-azaspiro[4.5]decan-8-yl]-5-(2,3-dichlorophenyl)-6-methylpyrimidine-4-carboxamide], the IC50 came to 48 nM in test [1]; 407 nM in test [2] (Homo sapiens, MDA-MB-468, 2 h); 1240 nM in test [3].
Taken in the same sequence, the figures for `CN(c1nc(N)c(-c2cccc(Cl)c2Cl)c(C(N)=O)n1)[C@H]1CC[C@H](N)CC1` [Compound 112, 6-Amino-2-[(4-amino-cyclohexyl)-methyl-amino]-5-(2,3-dichloro-phenyl)-pyrimidine-4-carboxylic acid amide] were 66 nM, 670 nM and 596 nM.
